# ChEMBL document CHEMBL1201862, “PubChem BioAssay data set” (2004)
# “And” between values parts separate entries of the source, which are not always exact repeats. Equal entries are not always repeated. The source made the active and inactive calls.
# Columns and labels:
# [1] = Luminescence Cell-Based Dose Confirmation HTS to Identify Inhibitors of Platelet Dense Granule Release. [Related pubchem assays: 1663 (Primary HTS), 1678 (Summary of Project)]; type: functional
# Coagulation factor XII = biological target: T1, Coagulation factor XII (Homo sapiens, UniProt P00748); type: functional;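 note: activated factor XIIa alpha cleaving a fluorogenic AMC peptide substrate; inhibitor potency from loss of enzyme activity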
# T1 sequence (P00748 whole entry): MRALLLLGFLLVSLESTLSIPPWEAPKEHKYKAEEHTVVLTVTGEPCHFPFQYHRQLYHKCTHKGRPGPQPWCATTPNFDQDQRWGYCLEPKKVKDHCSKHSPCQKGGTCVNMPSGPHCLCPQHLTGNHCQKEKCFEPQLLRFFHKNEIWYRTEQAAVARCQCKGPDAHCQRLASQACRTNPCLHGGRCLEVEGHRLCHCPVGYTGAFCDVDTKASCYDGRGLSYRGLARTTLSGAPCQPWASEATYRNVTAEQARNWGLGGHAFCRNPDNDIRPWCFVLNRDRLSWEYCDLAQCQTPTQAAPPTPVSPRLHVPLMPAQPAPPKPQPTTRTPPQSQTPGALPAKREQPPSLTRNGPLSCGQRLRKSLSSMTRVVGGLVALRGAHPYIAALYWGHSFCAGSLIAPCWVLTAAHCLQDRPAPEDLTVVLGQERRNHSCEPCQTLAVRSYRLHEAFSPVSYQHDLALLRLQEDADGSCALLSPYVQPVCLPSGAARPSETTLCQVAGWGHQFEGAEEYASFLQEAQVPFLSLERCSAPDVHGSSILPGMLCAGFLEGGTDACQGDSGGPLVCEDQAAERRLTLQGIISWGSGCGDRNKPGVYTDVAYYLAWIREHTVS
# [2] = biological target: Luciferin 4-monooxygenase (Photinus pyralis, UniProt P08659); test: firefly luciferase enzyme inhibitors, dose response, biochemical, luminescence (AID 1891)
# Genome polyprotein = Genome polyprotein (dengue virus type 2, UniProt P29990); test: Dengue-2 NS5 methyltransferase inhibitors, primary screen, biochemical, confirmation dose response (AID 588689); type: functional
# Large T antigen = Large T antigen (Simian virus 40, UniProt P03070); type: functional, Betapolyomavirus macacae;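 note: Confirmatory-stage PubChem screen for compounds that inhibit SV40 T antigen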
# [3] = biological target: T2, Ubiquitin-conjugating enzyme E2 N (Homo sapiens, UniProt P61088); type: functional;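 note: Dose-response confirmation in a TR-FRET assay detecting UBC13-driven polyubiquitin chain formation, inhibition measured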
# T2 sequence (P61088 whole entry): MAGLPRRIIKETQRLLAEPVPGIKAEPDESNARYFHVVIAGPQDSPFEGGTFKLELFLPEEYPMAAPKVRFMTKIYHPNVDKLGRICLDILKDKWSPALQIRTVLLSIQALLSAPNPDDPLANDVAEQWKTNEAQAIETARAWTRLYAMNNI
# Streptokinase A = biological target: T3, Streptokinase A (Streptococcus pyogenes serotype M1, UniProt P10520); test: S. pyogenes streptokinase expression inhibitors, potency, dose response, plasminogen activation absorbance, OD405 (AID 1914); type: functional, Streptococcus pyogenes M1 GAS;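 note: secreted streptokinase activity via plasminogen activation per viability signal from cell pellet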
# T3 sequence (P10520 whole entry): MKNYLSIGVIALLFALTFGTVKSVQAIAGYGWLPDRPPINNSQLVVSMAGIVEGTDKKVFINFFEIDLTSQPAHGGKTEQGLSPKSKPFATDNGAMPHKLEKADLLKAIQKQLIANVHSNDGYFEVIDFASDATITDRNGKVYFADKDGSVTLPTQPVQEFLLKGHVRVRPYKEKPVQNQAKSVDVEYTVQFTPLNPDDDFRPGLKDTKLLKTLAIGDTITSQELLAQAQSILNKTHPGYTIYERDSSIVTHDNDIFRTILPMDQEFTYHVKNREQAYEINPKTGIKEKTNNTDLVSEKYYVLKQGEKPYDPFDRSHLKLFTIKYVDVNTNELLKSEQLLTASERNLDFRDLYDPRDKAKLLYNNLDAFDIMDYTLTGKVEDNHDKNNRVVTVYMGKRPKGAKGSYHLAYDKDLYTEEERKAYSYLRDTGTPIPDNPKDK
# Leucine aminopeptidase = biological target: T4, Leucine aminopeptidase (Plasmodium falciparum 3D7, UniProt Q8IL11); test: P. falciparum M17LAP inhibitors, primary screen, biochemical, fluorogenic H-Leu-NHMec substrate, 1536-well (AID 1619); type: functional
# T4 sequence (Q8IL11 whole entry): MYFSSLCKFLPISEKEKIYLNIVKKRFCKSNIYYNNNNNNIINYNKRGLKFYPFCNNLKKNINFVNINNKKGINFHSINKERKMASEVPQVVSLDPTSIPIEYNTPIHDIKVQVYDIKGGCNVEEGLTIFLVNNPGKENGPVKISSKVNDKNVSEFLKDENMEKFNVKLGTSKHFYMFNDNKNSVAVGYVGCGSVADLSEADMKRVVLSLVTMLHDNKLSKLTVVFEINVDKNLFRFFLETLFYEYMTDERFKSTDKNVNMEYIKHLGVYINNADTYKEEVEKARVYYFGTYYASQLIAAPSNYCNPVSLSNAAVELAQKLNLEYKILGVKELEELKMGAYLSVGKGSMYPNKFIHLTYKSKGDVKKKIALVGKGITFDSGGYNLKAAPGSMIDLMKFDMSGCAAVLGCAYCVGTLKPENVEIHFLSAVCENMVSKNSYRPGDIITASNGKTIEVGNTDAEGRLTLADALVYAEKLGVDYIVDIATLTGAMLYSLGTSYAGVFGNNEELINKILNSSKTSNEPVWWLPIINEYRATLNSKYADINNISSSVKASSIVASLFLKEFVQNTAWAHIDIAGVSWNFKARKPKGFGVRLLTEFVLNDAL
# [4] = biological target: FAD-linked sulfhydryl oxidase ALR (Homo sapiens, UniProt P55789); test: inhibitors of human ALR sulfhydryl oxidase, dose response, biochemical, H2O2 detection, luminescence, cherry-pick (AID 493248)
# Cytochrome P450 1A2 = biological target: T5, Cytochrome P450 1A2 (Homo sapiens, UniProt P05177);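 note: PubChem cytochrome P450 panel assay, CYP1A2 panel member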
# T5 sequence (P05177 whole entry): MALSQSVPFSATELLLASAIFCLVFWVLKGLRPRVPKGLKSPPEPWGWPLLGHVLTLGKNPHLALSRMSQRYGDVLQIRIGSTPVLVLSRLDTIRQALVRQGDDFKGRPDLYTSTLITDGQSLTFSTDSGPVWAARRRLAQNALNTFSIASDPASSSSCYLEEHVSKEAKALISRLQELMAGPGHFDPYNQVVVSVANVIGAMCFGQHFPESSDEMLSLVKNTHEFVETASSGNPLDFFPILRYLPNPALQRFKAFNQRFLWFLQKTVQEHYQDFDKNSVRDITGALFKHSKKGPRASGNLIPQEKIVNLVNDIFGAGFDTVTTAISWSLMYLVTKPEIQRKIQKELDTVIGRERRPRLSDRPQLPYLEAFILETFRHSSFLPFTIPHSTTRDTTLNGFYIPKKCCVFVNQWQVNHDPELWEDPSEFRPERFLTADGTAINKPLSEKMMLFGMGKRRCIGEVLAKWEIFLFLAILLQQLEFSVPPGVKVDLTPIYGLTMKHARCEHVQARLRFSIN
# Cytochrome P450 2C9 = Cytochrome P450 2C9 (Homo sapiens, UniProt P11712)
# Protein RecA = biological target: T6, Protein RecA (Mycobacterium tuberculosis, UniProt P9WHJ3); test: Fluorescence Cell-Free Homogeneous Dose Retest to Identify Inhibitors of RecA-Intein Splicing Activity. [Related pubchem assays (depositor defined):AID2097, AID2223, AID489010, AID492950]; type: functional
# T6 sequence (P9WHJ3 whole entry): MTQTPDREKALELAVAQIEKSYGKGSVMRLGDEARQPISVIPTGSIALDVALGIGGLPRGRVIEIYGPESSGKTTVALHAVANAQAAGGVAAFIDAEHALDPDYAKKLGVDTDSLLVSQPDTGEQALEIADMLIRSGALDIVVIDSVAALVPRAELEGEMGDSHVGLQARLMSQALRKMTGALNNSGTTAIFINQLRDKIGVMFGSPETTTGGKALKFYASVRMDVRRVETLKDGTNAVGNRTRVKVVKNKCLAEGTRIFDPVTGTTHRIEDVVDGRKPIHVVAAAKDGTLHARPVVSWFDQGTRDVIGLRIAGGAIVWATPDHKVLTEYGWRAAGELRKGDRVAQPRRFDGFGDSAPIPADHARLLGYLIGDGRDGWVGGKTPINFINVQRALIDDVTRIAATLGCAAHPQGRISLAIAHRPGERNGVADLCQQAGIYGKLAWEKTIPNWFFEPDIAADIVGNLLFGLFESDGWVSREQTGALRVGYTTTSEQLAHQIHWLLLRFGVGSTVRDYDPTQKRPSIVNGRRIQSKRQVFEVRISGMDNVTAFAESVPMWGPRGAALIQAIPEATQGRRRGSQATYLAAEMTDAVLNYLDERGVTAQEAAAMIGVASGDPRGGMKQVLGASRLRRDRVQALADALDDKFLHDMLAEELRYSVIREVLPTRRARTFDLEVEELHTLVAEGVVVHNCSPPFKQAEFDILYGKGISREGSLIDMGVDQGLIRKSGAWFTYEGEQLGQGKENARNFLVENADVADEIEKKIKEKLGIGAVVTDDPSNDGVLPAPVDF
# [5] = biological target: T7, Replicative DNA helicase DnaB (Mycobacterium tuberculosis, UniProt P9WMR3); test: DnaB intein splicing inhibitors, dose response, biochemical, cell-free fluorescence (AID 449749); type: functional
# T7 sequence (P9WMR3 whole entry): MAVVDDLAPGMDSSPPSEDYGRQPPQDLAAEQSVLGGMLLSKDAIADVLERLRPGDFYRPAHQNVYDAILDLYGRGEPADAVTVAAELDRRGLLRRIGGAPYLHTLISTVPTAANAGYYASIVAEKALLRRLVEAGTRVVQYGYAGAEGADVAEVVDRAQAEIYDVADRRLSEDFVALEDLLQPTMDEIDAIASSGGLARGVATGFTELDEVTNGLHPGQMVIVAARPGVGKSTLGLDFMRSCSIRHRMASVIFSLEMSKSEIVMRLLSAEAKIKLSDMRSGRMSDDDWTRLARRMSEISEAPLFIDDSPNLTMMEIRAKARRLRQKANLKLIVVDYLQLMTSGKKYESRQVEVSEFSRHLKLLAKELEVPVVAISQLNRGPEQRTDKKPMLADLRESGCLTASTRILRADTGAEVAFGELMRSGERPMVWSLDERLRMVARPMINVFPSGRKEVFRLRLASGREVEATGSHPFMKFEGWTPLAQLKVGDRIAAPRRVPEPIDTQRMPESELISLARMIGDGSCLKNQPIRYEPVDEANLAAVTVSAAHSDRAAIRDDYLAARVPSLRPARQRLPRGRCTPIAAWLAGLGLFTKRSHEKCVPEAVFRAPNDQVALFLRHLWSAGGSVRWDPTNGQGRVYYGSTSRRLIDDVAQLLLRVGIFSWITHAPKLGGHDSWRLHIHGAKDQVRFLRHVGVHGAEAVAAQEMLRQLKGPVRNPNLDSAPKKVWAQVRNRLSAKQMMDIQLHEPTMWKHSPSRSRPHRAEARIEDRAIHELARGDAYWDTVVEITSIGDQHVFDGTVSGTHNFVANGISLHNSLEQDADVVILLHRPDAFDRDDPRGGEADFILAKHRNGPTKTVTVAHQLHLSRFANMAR
# Nonstructural protein 1 = Nonstructural protein 1 (Influenza A virus, UniProt Q194T2); type: functional, Influenza A virus (A/California/07/2009(H1N1))
# [6] = control 3'UTR Renilla luciferase suppression, dose response, counter-screen for Shn3 inhibitor project, cell-based, Clone20-Shn3RL, cherry-picked (AID 624133); type: functional
# [7] = Shn3 3'UTR reporter inhibitors, dose response, cell-based, Clone20 osteoblasts, firefly luciferase, cherry-picked (AID 624132); type: functional;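 note: firefly luciferase luminescence from reporter carrying the Shn3 3'UTR in osteoblasts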
# Chain of Genome polyprotein (P29990 2492-3391 limits assumed): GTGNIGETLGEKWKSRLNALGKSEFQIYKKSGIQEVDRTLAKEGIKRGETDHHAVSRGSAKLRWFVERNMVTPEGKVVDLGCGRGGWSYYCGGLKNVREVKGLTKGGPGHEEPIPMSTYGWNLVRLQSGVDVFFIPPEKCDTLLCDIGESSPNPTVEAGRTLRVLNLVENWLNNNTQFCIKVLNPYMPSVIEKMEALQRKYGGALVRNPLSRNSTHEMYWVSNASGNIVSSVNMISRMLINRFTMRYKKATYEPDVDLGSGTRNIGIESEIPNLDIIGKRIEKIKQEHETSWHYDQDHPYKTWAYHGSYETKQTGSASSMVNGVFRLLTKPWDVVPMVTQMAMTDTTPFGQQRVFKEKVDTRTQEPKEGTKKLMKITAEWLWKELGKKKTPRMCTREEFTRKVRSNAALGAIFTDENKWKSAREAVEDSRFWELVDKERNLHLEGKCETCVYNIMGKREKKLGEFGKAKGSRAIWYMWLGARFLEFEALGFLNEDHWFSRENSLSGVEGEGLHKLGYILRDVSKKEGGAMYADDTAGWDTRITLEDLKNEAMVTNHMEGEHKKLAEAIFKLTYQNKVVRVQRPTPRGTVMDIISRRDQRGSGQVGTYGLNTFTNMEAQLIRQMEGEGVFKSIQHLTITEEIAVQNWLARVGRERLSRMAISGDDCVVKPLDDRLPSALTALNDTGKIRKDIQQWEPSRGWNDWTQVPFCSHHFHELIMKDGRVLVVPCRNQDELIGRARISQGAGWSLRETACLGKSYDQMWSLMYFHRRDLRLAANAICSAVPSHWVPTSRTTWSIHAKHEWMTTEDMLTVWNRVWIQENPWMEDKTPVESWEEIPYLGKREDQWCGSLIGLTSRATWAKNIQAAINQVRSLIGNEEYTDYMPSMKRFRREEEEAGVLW
# Chain of Nonstructural protein 1 (Q194T2 whole entry): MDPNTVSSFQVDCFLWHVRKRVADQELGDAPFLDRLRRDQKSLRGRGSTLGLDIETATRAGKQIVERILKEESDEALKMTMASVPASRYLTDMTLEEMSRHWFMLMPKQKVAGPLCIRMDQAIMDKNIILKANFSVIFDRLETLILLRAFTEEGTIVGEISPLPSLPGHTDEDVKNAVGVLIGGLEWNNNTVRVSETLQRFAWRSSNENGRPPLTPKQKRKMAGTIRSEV
# Chain of Large T antigen (P03070 whole entry): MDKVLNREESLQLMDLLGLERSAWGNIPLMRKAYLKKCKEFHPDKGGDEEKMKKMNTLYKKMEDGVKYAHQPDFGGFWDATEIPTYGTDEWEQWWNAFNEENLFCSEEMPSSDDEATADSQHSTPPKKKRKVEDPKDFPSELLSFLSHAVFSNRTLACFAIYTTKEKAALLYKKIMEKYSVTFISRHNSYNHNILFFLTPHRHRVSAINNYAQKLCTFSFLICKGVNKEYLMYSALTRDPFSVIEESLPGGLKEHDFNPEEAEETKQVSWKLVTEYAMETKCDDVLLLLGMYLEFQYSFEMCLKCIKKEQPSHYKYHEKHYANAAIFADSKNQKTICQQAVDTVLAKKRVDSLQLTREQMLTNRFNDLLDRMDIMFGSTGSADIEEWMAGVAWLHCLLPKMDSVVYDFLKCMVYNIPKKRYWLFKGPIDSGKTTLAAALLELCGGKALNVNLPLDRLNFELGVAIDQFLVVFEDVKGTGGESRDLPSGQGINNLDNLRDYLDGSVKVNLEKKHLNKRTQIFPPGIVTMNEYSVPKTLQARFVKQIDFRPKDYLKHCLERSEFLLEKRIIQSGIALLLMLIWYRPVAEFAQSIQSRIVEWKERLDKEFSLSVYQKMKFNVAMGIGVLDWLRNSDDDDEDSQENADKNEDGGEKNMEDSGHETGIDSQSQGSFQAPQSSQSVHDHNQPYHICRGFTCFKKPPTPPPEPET
# Chain of Cytochrome P450 2C9 (P11712 whole entry): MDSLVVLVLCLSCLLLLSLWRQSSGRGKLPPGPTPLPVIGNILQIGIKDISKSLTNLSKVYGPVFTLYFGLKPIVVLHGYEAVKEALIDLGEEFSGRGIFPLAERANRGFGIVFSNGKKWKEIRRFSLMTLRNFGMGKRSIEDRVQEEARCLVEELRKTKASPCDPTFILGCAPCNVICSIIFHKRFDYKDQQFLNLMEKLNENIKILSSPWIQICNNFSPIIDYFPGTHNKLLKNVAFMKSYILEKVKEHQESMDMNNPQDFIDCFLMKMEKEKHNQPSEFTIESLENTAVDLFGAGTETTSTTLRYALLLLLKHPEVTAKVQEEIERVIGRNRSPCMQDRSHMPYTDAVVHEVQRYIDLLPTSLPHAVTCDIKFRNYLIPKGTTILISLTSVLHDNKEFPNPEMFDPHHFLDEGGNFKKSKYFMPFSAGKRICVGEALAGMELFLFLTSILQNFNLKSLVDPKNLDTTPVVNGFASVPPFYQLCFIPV
# Chain of Luciferin 4-monooxygenase (P08659 whole entry): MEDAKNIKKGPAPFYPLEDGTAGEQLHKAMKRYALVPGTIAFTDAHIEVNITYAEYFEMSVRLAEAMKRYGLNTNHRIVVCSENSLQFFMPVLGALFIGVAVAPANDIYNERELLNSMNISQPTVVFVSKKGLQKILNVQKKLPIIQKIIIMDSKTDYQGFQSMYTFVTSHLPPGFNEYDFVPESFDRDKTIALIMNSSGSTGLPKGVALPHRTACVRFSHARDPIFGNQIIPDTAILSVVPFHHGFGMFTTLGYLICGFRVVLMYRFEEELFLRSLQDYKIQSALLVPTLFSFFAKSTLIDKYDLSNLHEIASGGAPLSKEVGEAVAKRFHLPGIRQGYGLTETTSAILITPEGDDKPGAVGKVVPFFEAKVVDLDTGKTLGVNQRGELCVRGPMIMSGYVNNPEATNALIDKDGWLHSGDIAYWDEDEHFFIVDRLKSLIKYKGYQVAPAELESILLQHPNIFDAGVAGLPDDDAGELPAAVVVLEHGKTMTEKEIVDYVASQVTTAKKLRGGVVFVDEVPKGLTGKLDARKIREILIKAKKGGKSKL
# Chain of FAD-linked sulfhydryl oxidase ALR (P55789 whole entry): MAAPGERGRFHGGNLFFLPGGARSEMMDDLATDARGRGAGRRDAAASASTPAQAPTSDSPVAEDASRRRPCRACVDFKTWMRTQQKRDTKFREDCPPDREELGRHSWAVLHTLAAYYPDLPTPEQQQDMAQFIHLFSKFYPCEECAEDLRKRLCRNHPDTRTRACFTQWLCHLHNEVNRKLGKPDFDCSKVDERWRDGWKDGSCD
smiles,measurement,setting,value
Cc1c(C(=O)N2CCOCC2)sc2ncnc(N3CCc4ccccc4C3)c12,EC50,[1],> 112 µM (not active)
same,IC50,Coagulation factor XII,> 50 µM (inactive)
same,EC50,[2],> 112 µM (not active)
Cc1ccc2cc(C=C3C(=O)NC(=O)NC3=O)c(O)nc2c1,IC50,Genome polyprotein,79 µM (active)
same,IC50,Large T antigen,> 100 µM (active)
CCN1CCN(Cc2ccc(NC(=O)c3cc(NC(=O)c4cc(-c5ccc(OC)cc5)n[nH]4)cc(OC)c3)cc2C(F)(F)F)CC1,IC50,[3],> 20 µM (inactive)
same,EC50,Streptokinase A,> 150 µM (not active)
O=C(c1ccco1)N1CCN(C(=O)c2[nH]ncc2[N+](=O)[O-])CC1,IC50,Leucine aminopeptidase,2.22 µM (active)
O=C(NNc1cc(Br)c(O)c(Br)c1)c1ccccc1,IC50,Genome polyprotein,63.2 µM (active)
same,AC50,[4],0.192 µM (active)
Clc1ccccc1CNc1ncnc2nc[nH]c12,IC50,Leucine aminopeptidase,48.3 µM (active)
CC(C)c1cccc(-c2ccc3c(c2)S(=O)(=O)c2cccc(C(=O)O)c2C3=O)c1,IC50,Genome polyprotein,66.2 µM (active)
CCC(=O)NC(c1cc(Cl)c2ccccc2c1O)C(C)C (configuration not stated),IC50,[3],> 20 µM (inactive)
Cc1cc(NC(=O)CCN2C(=O)C3C4CCC(C4)C3C2=O)c(C)cc1Br (configuration not stated),AC50,Cytochrome P450 1A2,15.8 µM (inconclusive)
same,AC50,Cytochrome P450 2C9,inconclusive
same,IC50,Leucine aminopeptidase,13.7 µM (active)
COc1ccccc1NC(=O)c1c(/N=C/c2cccc([N+](=O)[O-])c2)cnn1C,IC50,[3],> 20 µM (inactive)
Nc1n[nH]c(SCC(=O)Nc2ccc3c(c2)CCC3)n1,IC50,Leucine aminopeptidase,45.2 µM (active)
O=C(Cc1cc(O)n[nH]1)N/N=C/C(Cl)=C/c1ccccc1,EC50,Protein RecA,1.02 µM (active) and 2.32 µM (active)
same,AC50,[5],1.95 µM (active) and 2.24 µM (active)
same,IC50,Leucine aminopeptidase,90.6 µM (active)
CC1CCN(C(=O)c2ccc3c(c2NCCO)C(=O)c2ccccc2C3=O)CC1,IC50,Nonstructural protein 1,24.5 µM (active)
Cc1cccc(N(C(=O)c2snc(C(N)=O)c2N)C(C(=O)NC2CCCC2)c2ccco2)c1 (configuration not stated),IC50,[3],> 20 µM (inactive)
Cc1ccc(NC(=O)CSc2nc3ccccc3c(=O)n2CCCC(=O)NCCCN2CCOCC2)cc1C,IC50,[3],> 20 µM (inactive)
CN(CC(=O)O)Cc1nc2ccccc2[nH]1,IC50,Nonstructural protein 1,11.6 µM (active)
O=C1NCCOC(=O)[C@@H](Cc2ccc(F)cc2)CC/C=C/C[C@@H]1CC(=O)N(CCO)Cc1ccccc1,AC50,[6],29.6 µM (active)
same,AC50,[7],> 70 µM (inactive)
